# Results as given in patent publication US8765791B2, “Method of treating cancer using a neuropeptide Y 5R (NP Y5R) antagonist” (University Health Network, priority 2008, dated 2014).
# Columns and labels:
# Rat glioma cells = assay: brain cancer xenograft model (Example 7); type: in vivo, CB17-SCID mice
# Method: (§1) Rat glioma cells (2×10^6) were implanted in CB17-SCID mice. The mice were treated with MK0557 at 30 mg/kg, or vehicle (15% of 0.5%) CMC (carboxymethylcelulose) (low viscosity) and 85% of 0.2% Tween80 in water) intraperitoneally daily for the first week followed by once every two days injections.
# Lung cancer cells, H358 = assay: lung cancer xenograft model (Example 9); type: in vivo, CB17-SCID mice
# Method: as §1, with “Lung cancer cells, H358, (1×10^6)” for “Rat glioma cells (2×10^6)”, “Ten days post-implantation, the” for “The”, “mg/kg” for “mg/kg,”
# [1] = test system: Hodgkin Lymphoma cells, HD-MYZ; assay: Hodgkin lymphoma xenograft model (Example 12); type: in vivo, NOD-SCID mice; conditions: 30 mg/kg i.p. 3/week, approximately 2 weeks
# Excerpt: Hodgkin lymphoma cells, HD-MYZ (1 million), were implanted s.c. on the right flank of NOD-SCID mice (Cat#001303, female, 4-6 weeks from Jackson laboratories, Bar Harbor, Me.). The mice were divided into four groups, 5 mice for each group. […] The tumor growth was monitored during the experiment. […] (FIG. 13)
# [2] = test system: Ovarian cancer cells, Caov-3; assay: ovarian cancer xenograft model (Example 10); type: in vivo, CB17-SCID mice
# Method: Ovarian cancer cells, Caov-3 (2 Million), were implanted in CB17-SCID mice. The mice were treated with MK0557 at 30 mg/kg or vehicle (15% of 0.5% of CMC (carboxymethylcellulose, low viscosity) and 85% of 0.2% Tween 80 in water) intraperitoneally daily for the first week followed by once every two days injections. Both the tumor growth and body weights were monitored for the duration of the experiment.
# human NPY2R = target: T1, human NPY2R (Homo sapiens, UniProt P49146); conditions: at a concentration of 10 μM; cited from earlier work
# T1 sequence (P49146 1-381): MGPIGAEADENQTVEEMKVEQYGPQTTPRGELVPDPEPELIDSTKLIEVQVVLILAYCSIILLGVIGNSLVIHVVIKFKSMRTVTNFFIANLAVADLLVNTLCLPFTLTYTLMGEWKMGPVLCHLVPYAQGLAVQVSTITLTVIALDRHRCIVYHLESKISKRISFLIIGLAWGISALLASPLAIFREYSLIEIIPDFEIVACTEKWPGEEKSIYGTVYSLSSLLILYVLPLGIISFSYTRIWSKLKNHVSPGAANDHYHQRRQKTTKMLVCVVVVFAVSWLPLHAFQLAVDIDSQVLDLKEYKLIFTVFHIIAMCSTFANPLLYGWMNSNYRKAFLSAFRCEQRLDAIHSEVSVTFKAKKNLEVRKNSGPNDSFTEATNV
# [3] = test system: Breast cancer cells, MDA MB 468; assay: breast cancer xenograft model (Example 11); type: in vivo, SCID mice; conditions: 30 mg/kg i.p. 3/week, approximately 4 weeks
# Method: Breast cancer cells, MDA MB 468 (12 million), were injected subcutaneously (s.c.) on the neck of SCID mice (CB17, female, 4-6 weeks old) (Charles River, Wilmington, Mass.). The mice were divided into four groups, 5 mice for each group. The treatments were started when the tumor volume reached about 100 mm^3, day 22 after tumor implantation. […] The tumor sizes were monitored every 3 or 4 days. […] (FIG. 12)
# [4] = test system: Colon cancer cells, HCT-15; assay: colon cancer xenograft model (Example 8); type: in vivo, CB17-SCID mice
# Method: as §1, with “Colon cancer cells, HCT-15, (1×10^6)” for “Rat glioma cells (2×10^6)”, “mg/kg” for “mg/kg,”
# [5] = 30 mg/kg intraperitoneally daily first week then once every two days
compound,measurement,setting,value
"O=C1O[C@]2(CC[C@H](C(=O)Nc3ccn(-c4ccccc4F)n3)CC2)c2cnccc21 [MK-0557, trans-N-[1-(2-fluorophenyl)-3-pyrazolyl]-3-oxospiro[6 azaisobenzofuran-1(3H), 1′-cyclohexane]-4′carboxamide]",effect on mouse body weights,Rat glioma cells; 30 mg/kg intraperitoneally,no obvious effect
same,tumor growth,Rat glioma cells; [5],Tumor growth was inhibited
same,effect on mouse body weights,"Lung cancer cells, H358; 30 mg/kg intraperitoneally",no obvious effect
same,tumor growth,"Lung cancer cells, H358; [5]",Tumor growth was inhibited
same,tumor growth,[1],inhibited tumor growth
same,change in body weight,[2]; 30 mg/kg intraperitoneally,not significantly affected
same,tumor growth,[2]; [5],inhibited tumor growth
same,binding to human NPY2R,human NPY2R,does not significantly bind
same,tumor growth,[3],inhibited tumor growth
same,effect on mouse body weights,[4]; 30 mg/kg intraperitoneally,no obvious effect
same,tumor growth,[4]; [5],Tumor growth was inhibited
